Experiment: xn = mol fraction of the nth substance listed

CC1CCC(=O)O1 (stereo not given) [γ-valerolactone] + O=C=O
Fluid (supercritical or subcritical phases), Pycnometric method
Details	mass density [kg/m3]
327.9 K, 12360 kPa, x1 = 0.1	876
327.9 K, 12500 kPa, x1 = 0.05	784
327.9 K, 12510 kPa, x1 = 0.025	726
327.9 K, 12630 kPa, x1 = 0.01	657
327.9 K, 12640 kPa, x1 = 0.15	937
327.9 K, 12700 kPa, x1 = 0.05	790
327.9 K, 12720 kPa, x1 = 0.025	735
327.9 K, 12740 kPa, x1 = 0.1	882
327.9 K, 12920 kPa, x1 = 0.05	795
327.9 K, 13010 kPa, x1 = 0.025	745
327.9 K, 13120 kPa, x1 = 0.15	941
327.9 K, 13130 kPa, x1 = 0.1	888
327.9 K, 13160 kPa, x1 = 0.05	800
327.9 K, 13320 kPa, x1 = 0.025	755
327.9 K, 13370 kPa, x1 = 0.1	891
327.9 K, 13410 kPa, x1 = 0.05	805
327.9 K, 13520 kPa, x1 = 0.15	943
327.9 K, 13640 kPa, x1 = 0.1	894
327.9 K, 13660 kPa, x1 = 0.025	765
327.9 K, 13700 kPa, x1 = 0.05	811
327.9 K, 13980 kPa, x1 = 0.15	947
327.9 K, 14010 kPa, x1 = 0.05	817
327.9 K, 14060 kPa, x1 = 0.025	776
327.9 K, 14180 kPa, x1 = 0.1	900
327.9 K, 14330 kPa, x1 = 0.05	823
327.9 K, 14440 kPa, x1 = 0.15	949
327.9 K, 14700 kPa, x1 = 0.05	829
327.9 K, 14780 kPa, x1 = 0.1	907
327.9 K, 14900 kPa, x1 = 0.15	952
327.9 K, 15080 kPa, x1 = 0.05	835
327.9 K, 15410 kPa, x1 = 0.1	913
327.9 K, 15460 kPa, x1 = 0.15	956
327.9 K, 15940 kPa, x1 = 0.15	959
327.9 K, 16050 kPa, x1 = 0.1	919
327.9 K, 16480 kPa, x1 = 0.15	962
327.9 K, 17080 kPa, x1 = 0.15	965
332.8 K, 12270 kPa, x1 = 0.025	651
332.8 K, 12280 kPa, x1 = 0.025	652
332.8 K, 12340 kPa, x1 = 0.025	655
332.8 K, 12390 kPa, x1 = 0.025	659
332.8 K, 12460 kPa, x1 = 0.025	663
332.8 K, 12530 kPa, x1 = 0.025	667
332.8 K, 12600 kPa, x1 = 0.025	671
332.8 K, 12680 kPa, x1 = 0.025	675
332.8 K, 12840 kPa, x1 = 0.025	683
332.8 K, 12980 kPa, x1 = 0.025	690
332.8 K, 13130 kPa, x1 = 0.025	696
332.8 K, 13420 kPa, x1 = 0.025	710
332.8 K, 13670 kPa, x1 = 0.025	718
332.8 K, 13940 kPa, x1 = 0.025	728
332.8 K, 14270 kPa, x1 = 0.025	738
332.8 K, 14540 kPa, x1 = 0.025	744
332.8 K, 14820 kPa, x1 = 0.025	752
332.8 K, 15190 kPa, x1 = 0.025	761
332.9 K, 11320 kPa, x1 = 0.01	487
332.9 K, 11330 kPa, x1 = 0.01	488
332.9 K, 11340 kPa, x1 = 0.01	490
332.9 K, 11350 kPa, x1 = 0.01	491
332.9 K, 11370 kPa, x1 = 0.01	493
332.9 K, 11380 kPa, x1 = 0.01	494
332.9 K, 11400 kPa, x1 = 0.01	496
332.9 K, 11410 kPa, x1 = 0.01	497
332.9 K, 11420 kPa, x1 = 0.01	498
332.9 K, 11440 kPa, x1 = 0.01	500
332.9 K, 11450 kPa, x1 = 0.01	501
332.9 K, 11470 kPa, x1 = 0.01	503
332.9 K, 11490 kPa, x1 = 0.01	506
332.9 K, 11520 kPa, x1 = 0.01	509
332.9 K, 11560 kPa, x1 = 0.01	511
332.9 K, 11600 kPa, x1 = 0.01	515
332.9 K, 11630 kPa, x1 = 0.01	518
332.9 K, 11660 kPa, x1 = 0.01	521
332.9 K, 11700 kPa, x1 = 0.01	524
332.9 K, 11730 kPa, x1 = 0.01	527
332.9 K, 11770 kPa, x1 = 0.01	531
332.9 K, 11810 kPa, x1 = 0.01	534
332.9 K, 11850 kPa, x1 = 0.01	537
332.9 K, 11890 kPa, x1 = 0.01	540
332.9 K, 11940 kPa, x1 = 0.01	543
332.9 K, 11990 kPa, x1 = 0.01	547
332.9 K, 12040 kPa, x1 = 0.01	551
332.9 K, 12090 kPa, x1 = 0.01	554
332.9 K, 12140 kPa, x1 = 0.01	558
332.9 K, 12190 kPa, x1 = 0.01	561
332.9 K, 12240 kPa, x1 = 0.01	565
332.9 K, 12290 kPa, x1 = 0.01	569
332.9 K, 12340 kPa, x1 = 0.01	573
332.9 K, 12390 kPa, x1 = 0.01	576
332.9 K, 12460 kPa, x1 = 0.01	580
332.9 K, 12530 kPa, x1 = 0.01	584
332.9 K, 12590 kPa, x1 = 0.01	588
332.9 K, 12600 kPa, x1 = 0.15	914
332.9 K, 12670 kPa, x1 = 0.01	592
332.9 K, 12750 kPa, x1 = 0.15	916
332.9 K, 12800 kPa, x1 = 0.01	600
332.9 K, 12820 kPa, x1 = 0.05	743
332.9 K, 12860 kPa, x1 = 0.05	743
332.9 K, 12920 kPa, x1 = 0.05	746
332.9 K, 12950 kPa, x1 = 0.01	608
332.9 K, 13060 kPa, x1 = 0.05	751
332.9 K, 13070 kPa, x1 = 0.1	854
332.9 K, 13090 kPa, x1 = 0.15	919
332.9 K, 13110 kPa, x1 = 0.01	617
332.9 K, 13170 kPa, x1 = 0.1	856
332.9 K, 13220 kPa, x1 = 0.05	755
332.9 K, 13270 kPa, x1 = 0.1	858
332.9 K, 13330 kPa, x1 = 0.01	628
332.9 K, 13380 kPa, x1 = 0.05	760
332.9 K, 13420 kPa, x1 = 0.1	861
332.9 K, 13440 kPa, x1 = 0.15	922
332.9 K, 13550 kPa, x1 = 0.05	766
332.9 K, 13550 kPa, x1 = 0.1	863
332.9 K, 13730 kPa, x1 = 0.1	865
332.9 K, 13730 kPa, x1 = 0.15	925
332.9 K, 13760 kPa, x1 = 0.05	770
332.9 K, 13890 kPa, x1 = 0.1	867
332.9 K, 13960 kPa, x1 = 0.05	776
332.9 K, 14060 kPa, x1 = 0.1	870
332.9 K, 14160 kPa, x1 = 0.05	781
332.9 K, 14250 kPa, x1 = 0.15	928
332.9 K, 14260 kPa, x1 = 0.1	873
332.9 K, 14400 kPa, x1 = 0.05	786
332.9 K, 14470 kPa, x1 = 0.1	876
332.9 K, 14620 kPa, x1 = 0.15	931
332.9 K, 14680 kPa, x1 = 0.05	792
332.9 K, 14680 kPa, x1 = 0.1	878
332.9 K, 14960 kPa, x1 = 0.05	798
332.9 K, 15000 kPa, x1 = 0.15	933
332.9 K, 15140 kPa, x1 = 0.1	884
332.9 K, 15260 kPa, x1 = 0.05	803
332.9 K, 15420 kPa, x1 = 0.1	888
332.9 K, 15420 kPa, x1 = 0.15	937
332.9 K, 15550 kPa, x1 = 0.05	809
332.9 K, 15660 kPa, x1 = 0.1	891
332.9 K, 15840 kPa, x1 = 0.15	940
332.9 K, 15950 kPa, x1 = 0.1	894
332.9 K, 16260 kPa, x1 = 0.1	897
332.9 K, 16380 kPa, x1 = 0.15	943
332.9 K, 16560 kPa, x1 = 0.1	900
332.9 K, 16870 kPa, x1 = 0.1	904
332.9 K, 17190 kPa, x1 = 0.1	907
337.9 K, 14310 kPa, x1 = 0.1	841
337.9 K, 14470 kPa, x1 = 0.1	844
337.9 K, 14580 kPa, x1 = 0.1	846
337.9 K, 14740 kPa, x1 = 0.1	848
337.9 K, 14900 kPa, x1 = 0.1	851
337.9 K, 15020 kPa, x1 = 0.1	852
337.9 K, 15200 kPa, x1 = 0.1	855
337.9 K, 15360 kPa, x1 = 0.1	857
337.9 K, 15580 kPa, x1 = 0.1	859
337.9 K, 15740 kPa, x1 = 0.1	862
337.9 K, 15940 kPa, x1 = 0.1	864
337.9 K, 16190 kPa, x1 = 0.1	868
337.9 K, 16420 kPa, x1 = 0.1	871
337.9 K, 16660 kPa, x1 = 0.1	874
337.9 K, 16920 kPa, x1 = 0.1	877
337.9 K, 17400 kPa, x1 = 0.1	883

mass density [kg/m3], high pressure variable cell
Details	327.9 K	332.8 K	332.9 K
Gas, x1 = 0.01	496	–	486
Gas, x1 = 0.025	660	649	–
Gas, x1 = 0.05	753	–	742
Liquid, x1 = 0.1	863	–	851
Liquid, x1 = 0.15	925	–	913

Liquid, high pressure variable cell
Details	Critical density [kg/m3]
x1 = 0.025	679
x1 = 0.05	774
x1 = 0.1	837

From the NIST ThermoML archive (doi:10.1021/je8007759)
